Data: patent publication US11555036B2, “FGFR4 inhibitor, preparation method therefor and pharmaceutical use thereof” (Abbisko Therapeutics Co., Ltd., priority 2016, dated 2023)

How the values were obtained:
[1] = tested on: Huh7 hepatocellular carcinoma cells; experiment: FGFR4 cell proliferation experiment, Cell Titer Glo (CTG); type: cell-based; conditions: Homo sapiens, Huh-7, 72 h, HuH-7 cells, 3 days; for IC50: concentration leading to absolute half growth inhibition; for EC50: concentration leading to half maximal growth inhibition
Summary of the method: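 Cells treated with 5-fold serial dilutions starting at 10 μM for 3 days at 37° C, 5% CO2. Proliferation/survival quantified as cellular ATP by CellTiter-Glo luminescence.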

[2] = target: FGFR4 (Homo sapiens, UniProt P22455); experiment: FGFR4 Caliper Assay (in vitro biochemical kinase analysis of FGFR4); conditions: read-out: Enzymatic activity FGFR4 IC50
Chain of FGFR4 (P22455 22-802): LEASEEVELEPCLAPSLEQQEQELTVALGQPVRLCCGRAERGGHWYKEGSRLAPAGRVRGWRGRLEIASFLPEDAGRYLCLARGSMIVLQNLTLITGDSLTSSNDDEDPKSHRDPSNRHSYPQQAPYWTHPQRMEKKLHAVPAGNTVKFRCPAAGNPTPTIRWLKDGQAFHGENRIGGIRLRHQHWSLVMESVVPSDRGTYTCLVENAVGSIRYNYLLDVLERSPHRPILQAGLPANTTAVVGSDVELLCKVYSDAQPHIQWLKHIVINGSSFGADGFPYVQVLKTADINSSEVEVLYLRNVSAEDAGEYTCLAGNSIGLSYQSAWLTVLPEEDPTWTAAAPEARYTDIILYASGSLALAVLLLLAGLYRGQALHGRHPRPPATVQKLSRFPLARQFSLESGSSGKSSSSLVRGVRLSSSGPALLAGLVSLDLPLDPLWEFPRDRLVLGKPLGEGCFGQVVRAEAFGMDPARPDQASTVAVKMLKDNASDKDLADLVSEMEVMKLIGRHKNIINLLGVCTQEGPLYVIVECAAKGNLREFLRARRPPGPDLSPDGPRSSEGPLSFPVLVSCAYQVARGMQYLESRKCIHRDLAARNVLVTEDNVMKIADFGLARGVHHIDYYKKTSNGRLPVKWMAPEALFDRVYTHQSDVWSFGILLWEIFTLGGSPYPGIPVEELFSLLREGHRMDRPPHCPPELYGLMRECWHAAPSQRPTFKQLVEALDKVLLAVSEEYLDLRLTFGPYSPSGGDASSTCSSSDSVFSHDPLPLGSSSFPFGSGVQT
Summary of the method: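 Kinase reaction at 30° C for 40 min in 50 mM HEPES pH 7.5, 16 mM MgCl2, 1 mM DTT, 0.6% DMSO, stopped with EDTA. Phosphorylated and unphosphorylated fluorescent peptides separated by Caliper microfluidic mobility shift. IC50 by non-linear regression of percent inhibition.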

IC50 [1] [nM]	EC50 [1] [nM]	IC50 [2] [nM]	SMILES
8.8	5.4	8.2	C=CC(=O)N[C@H]1COC[C@H]1Nc1ncc2cc(-c3c(Cl)c(OC)cc(OC)c3Cl)nc(N3CCOCC3)c2n1 [Example 686, N-((3R,4S)-4-((6-(2,6-dichloro-3,5-dimethoxyphenyl)-8-morpholino-pyrido[3,4-d]pyrimidin-2-yl)amino)tetra-hydrofuran-3-yl)acrylamide]
10	6.9	6.3	C=CC(=O)N[C@H]1COC[C@H]1Nc1ncc2cc(-c3c(F)c(OC)cc(OC)c3F)nc(N3CCOCC3)c2n1 [Example 687, N-((3R,4S)-4-((6-(2,6-difluoro-3,5-dimethoxyphenyl)-8-morpholino-pyrido[3,4-d]pyrimidin-2-yl)a-mino)tetrahydrofuran-3-yl)acrylamide]
12.1	8.4	8	C=CC(=O)N[C@H]1COC[C@H]1Nc1ncc2cc(-c3c(Cl)c(OC)cc(OC)c3Cl)nc(N3CC(C)OC(C)C3)c2n1 (stereo partly drawn) [Example 690, N-((3R,4S)-4-((6-(2,6-dichloro-3,5-dimethoxyphenyl)-8-(2,6-dimethyl-morpholino)pyrido[3,4-d]pyrimidin-2-yl)amino)tetrahydrofuran-3-yl)acryl-amide]
2.1	1.3	5.6	C=CC(=O)N[C@H]1COC[C@H]1Nc1ncc2cc(-c3c(Cl)c(OC)cc(OC)c3Cl)nc(N3CCC(OC)CC3)c2n1 [Example 693, N-((3R,4S)-4-((6-(2,6-dichloro-3,5-dimethoxyphenyl)-8-(4-methoxy-piperidin-1-l)pyrido[3,4-d]pyrimidin-2-yl)amino)tetrahydrofuran-3-yl)acryl-amide]
12	10	4.8	C=CC(=O)N[C@H]1COC[C@H]1Nc1ncc2cc(-c3c(F)c(OC)cc(OC)c3F)nc(N3CCC(OC)CC3)c2n1 [Example 694, N-((3R,4S)-4-((6-(2,6-difluoro-3,5-dimethoxyphenyl)-8-(4-methoxypiper-idin-1-yl)pyrido[3,4-d]pyrimidin-2-yl)amino)tetrahydrofuran-3-yl)acryl-amide]
20.2	17.2	8.5	C=CC(=O)N[C@H]1CCOC[C@H]1Nc1ncc2cc(-c3c(Cl)c(OC)cc(OC)c3Cl)nc(N3CC(OC)C3)c2n1 [Example 704, N-((3S,4S)-3-((6-(2,6-dichloro-3,5-di-methoxyphenyl)-8-(3-methoxyazeti-din-1-yl)pyrido[3,4-d]pyrimidin-2-yl)amino)tetrahydro-2H-pyran-4-yl)acrylamide]
1920	1920	62.7	C=CC(=O)Nc1cnn(CCOC)c1-c1ncc2cc(-c3c(Cl)c(OC)cc(OC)c3Cl)ncc2n1 [Example 715, N-(5-(6-(2,6-dichloro-3,5-dimethoxyphenyl)pyrido[3,4-d]pyrimidin-2-yl)-1-(2-methoxyethyl)-1H-pyrazol-4-yl)acrylamide]
1210	338	78.5	C=CC(=O)Nc1cnn(CCOC)c1-c1cc2cnc(-c3c(Cl)c(OC)cc(OC)c3Cl)cc2cn1 [Example 723, N-(5-(7-(2,6-dichloro-3,5-dimethoxyphenyl)-2,6-naphthyridin-3-yl)-1-(2-methoxyethyl)-1H-pyrazol-4-yl)acrylamide]
194	164	115	C=CC(=O)NCc1cc2c(cn1)cc(-c1c(Cl)c(OC)cc(OC)c1Cl)c(=O)n2C [Example 730, N-((3-(2,6-dichloro-3,5-dimethoxyphenyl)-1-methyl-2-oxo-1,2-dihydro-1,6-naphthyridin-7-yl)methyl)acrylamide]
2630	1710	991	C=CC(=O)N[C@H]1COC[C@H]1Nc1cc2c(NC)nc(-c3c(Cl)c(OC)cc(OC)c3Cl)nc2cn1 [Example 752, N-((3R,4S)-4-((2-(2,6-dichloro-3,5-dimethoxyphenyl)-4-(methylamino)pyrido [3,4-d]pyrimidin-6-yl)amino)tetrahydro-furan-3-yl)acrylamide]
212	130	19	C=CC(=O)N[C@H]1COC[C@H]1Nc1ncc2cc(-c3c(Cl)c(OC)cc(OC)c3Cl)nc(Cl)c2n1 [Example 753, N-((3R,4S)-4-((8-chloro-6-(2,6-di-chloro-3,5-dimethoxyphenyl)py-rido[3,4-d]pyrimidin-2-yl)amino)tetrahydro-furan-3-yl)acrylamide]
54	18	13.6	[2H]C([2H])([2H])Oc1cc(OC([2H])([2H])[2H])c(Cl)c(-c2cc3cnc(N[C@@H]4COC[C@@H]4NC(=O)C=C)nc3c(OCC)n2)c1Cl [Example 754, N-((3R,4S)-4-((6-(2,6-dichloro-3,5-bis(methoxy-d3)phenyl)-8-ethoxy-pyrido[3,4-d]pyrimidin-2-yl)amino)tetra-hydrofuran-3-yl)acrylamide]
31	19	20.2	C=CC(=O)N[C@H]1COC[C@H]1Nc1ncc2cc(-c3c(Cl)c(OC)cc(OC)c3Cl)nc(C3=CCOCC3)c2n1 [Example 756, N-((3R,4S)-4-((6-(2,6-dichloro-3,5-dimethoxyphenyl)-8-(3,6-dihydro-2H-pyran-4-yl)pyrido[3,4-d]pyrimidin-2-yl)amino)tetrahydrofuran-3-yl)acryl-amide]
9.2	5.8	5.9	C=CC(=O)N[C@H]1COC[C@H]1Nc1ncc2cc(-c3c(Cl)c(OC)cc(OC)c3Cl)nc(NCC(CO)(CO)CO)c2n1 [Example 758, N-((3R,4S)-4-((6-(2,6-dichloro-3,5-dimethoxypehnyl)-8-((3-hydroxy-2,2-bis(hydroxymethyl)propyl)amino)py-rido[3,4-d]pyrimidin-2-yl)amino)tetra-hydrofuran-3-yl)acrylamide]
61.1	42.2	5.7	C=CC(=O)N[C@H]1COC[C@H]1Nc1ncc2cc(-c3c(Cl)c(OC)cc(OC)c3Cl)nc(N3CC(CO)(CO)C3)c2n1 [Example 759, N-((3R,4S)-4-((8-(3,3-bis(hydroxy-methyl)azetidin-1-yl)-6-(2,6-dichloro-3,5-dimethoxyphenyl)pyrido[3,4-d]py-rimidin-2-yl)amino)tetrahydrofuran-3-yl)acrylamide]
6.7	5.5	2.9	C=CC(=O)N[C@H]1COC[C@H]1Nc1ncc2cc(-c3c(Cl)c(OC)cc(OC)c3Cl)nc(N3CCC(C)(O)C3)c2n1 (stereo partly drawn) [Example 760, N-((3R,4S)-4-((6-(2,6-dichloro-3,5-dimethoxyphenyl)-8-(3-hydroxy-3-methylpyrrolidin-1-yl)pyrido[3,4-d]py-rimidin-2-yl)amino)tetarhydrofuran-3-yl)acrylamide]
51.8	20.7	14.3	C=CC(=O)N[C@H]1COC[C@H]1Nc1ncc2cc(-c3cc(OC)cc(OC)c3Cl)nc(-c3cnn(C)c3)c2n1 [Example 761, N-((3R,4S)-4-((6-(2-chloro-3,5-dimeth-oxyphenyl)-8-(1-methyl-1H-pyrazol-4-yl)pyrido[3,4-d]pyrimidin-2-yl)ami-no)tetrahydrofuran-3-yl)acrylamide]
11.1	7.8	7.9	C=CC(=O)N[C@H]1COC[C@H]1Nc1ncc2cc(-c3c(Cl)c(OC)cc(OC)c3Cl)nc(N3CC4CC3CO4)c2n1 (stereo partly drawn) [Example 763, N-((3R,4S)-4-((8-(2-oxa-5-azabicyclo[2.2.1]heptan-5-yl)-6-(2,6-dichloro-3,5-dimethoxyphenyl)py-rido[3,4-d]pyrimidin-2-yl)a-mino)tetrahydrofuran-3-yl)acrylamide]
60.4	49.4	7	C=CC(=O)N[C@H]1COC[C@H]1Nc1ncc2cc(-c3c(F)c(OC)cc(OC)c3F)nc(NC)c2n1 [Example 764, N-((3R,4S)-4-((6-(2,6-difluoro-3,5-dimethoxyphenyl)-8-(methylamino)py-rido[3,4-d]pyrimidin-2-yl)amino)tetra-hydrofuran-3-yl)acrylamide]
656	421	158	C=CC(=O)N[C@H]1COC[C@H]1Nc1ncc2cc(-c3c(Cl)c(OC)cc(OC)c3Cl)nc(N)c2n1 [Example 765, N-((3R,4S)-4-((8-amino-6-(2,6-di-chloro-3,5-dimethoxyphenyl)pyrido[3,4-d]pyrimidin-2-yl)amino)tetrahydro-furan-3-yl)acrylamide]
27.9	19.8	8.3	[2H]C([2H])([2H])Nc1nc(-c2c(Cl)c(OC([2H])([2H])[2H])cc(OC([2H])([2H])[2H])c2Cl)cc2cnc(N[C@@H]3COC[C@@H]3NC(=O)C=C)nc12 [Example 766, N-((3R,4S)-4-((6-(2,6-dichloro-3,5-bis(methoxy-d3)phenyl)-8-((methyl-d3)amino)pyrido[3,4-d]pyrimidin-2-yl)a-mino)tetrahydrofuran-3-yl)acrylamide]
45.1	23.9	7	C=CC(=O)N[C@H]1COC[C@H]1Nc1ncc2cc(-c3c(F)c(OC)cc(OC)c3F)nc(NCC)c2n1 [Example 767, N-((3R,4S)-4-((6-(2,6-difluoro-3,5-dimethoxyphenyl)-8-(ethylamino)pyri-do[3,4-d]pyrimidin-2-yl)amino)tetra-hydrofuran-3-yl)acrylamide]

SMILES	IC50 [1] [nM]	EC50 [1] [nM]	IC50 [2] [nM]
C=CC(=O)N[C@H]1COC[C@H]1Nc1ncc2cc(-c3c(Cl)c(OC)cc(OC)c3Cl)nc(N3CC4CC(C3)O4)c2n1 [Example 762, N-((3R,4S)-4-((8-(6-oxa-3-aza-bicyclo[3.1.1]heptan-3-yl)-6-(2,6-di-chloro-3,5-dimethoxyphenyl)pyrido[3,4-d]pyrimidin-2-yl)amino)tetrahydro-furan-3-yl)acrylamide]	4.2	3.2	5.2
